Test results from article PMC11942905, “Identification of a Selective Inhibitor of Human NFS1, a Cysteine Desulfurase Involved in Fe-S Cluster Assembly, via Structure-Based Virtual Screening” (International Journal of Molecular Sciences, 2025).

Assays:
aconitase (ACO) = assay: Aconitase activity in A549 cells; type: cell-based, human; conditions: 50 µM
Experimental: The activity of succinate dehydrogenase (SDH) in cells was determined using an SDH activity assay kit (Solarbio, Beijing, China) according to the manufacturer’s instructions. The optical density at 600 nm (OD600) was measured using a multifunctional microplate reader in 96-well plates. One unit of SDH activity was defined as the amount of enzyme catalyzing the consumption of 1 nmol of 2,6-dichlorophenol indophenol per minute at 37 °C [43]. The activity of aconitase (ACO) was measured as previously described, with some modifications. The cells were washed three times with pre-cooled PBS and lysed with lysis buffer containing 50 mM of Tris-HCl (pH 8.0), 0.2% Triton X-100, 0.6 mM of MnCl2, 5 mM of citrate, and 1 mM of PMSF. The aconitase activity was measured by monitoring the formation of cis-aconitate from isocitrate at 240 nm in 50 mM of Tris-HCl (pH 8.0) containing 20 mM of DL-trisodium isocitrate at 37 °C. An extinction coefficient of 3600 M^−1 cm^−1 at 240 nm was used to calculate the cis-aconitate concentration. One unit of ACO activity was defined as the amount of enzyme catalyzing the generation of 1 nmol of cis-aconitate per minute at 37 °C.

BEAS-2B cells = assay: CCK-8 cell viability assay, BEAS-2B; type: cell-based; conditions: Homo sapiens, CCK-8, 72 h
Experimental: Human bronchial epithelial cells (BEAS-2B) and human lung adenocarcinoma A549 cells were purchased from the Institute of Biochemistry and Cell Biology, Chinese Academy of Sciences (Shanghai, China). BEAS-2B and A549 cells were cultured in DMEM supplemented with 10% (v/v) fetal bovine serum and 1% (v/v) penicillin–streptomycin solution at 37 °C in a humidified atmosphere containing 5% CO2. The half-maximal inhibitory concentration (IC50) values of the selected compounds against BEAS-2B and A549 cells were determined using the CCK-8 assay. Briefly, the cells were seeded into 96-well culture plates at a density of 5 × 10^3 cells per well. After 12 h of culture, fresh medium containing varying concentrations of the selected compounds dissolved in DMSO was added for an additional 72-hour incubation. Subsequently, 10 μL of CCK-8 solution was added to each well, followed by a further 1.5-h incubation at 37 °C. The optical density at 450 nm (OD450) for each well was measured using a microplate reader. Medium containing DMSO alone was used as the control group. Cell viability was calculated as the percentage of the OD450 of the experimental group compared to that of the control group, which was set at 100%.

In the case of COc1cc(/C=N/NC(=O)COc2ccc(Cl)cc2Cl)ccc1O [Compound 53], the “ACO activity compared to the control group” value (aconitase (ACO)) is reported as 51.3% and the IC50 (BEAS-2B cells) is reported as 31 ± 3.98 µM.
